Source: patent US12162858B2, “Quinoline derivatives as inhibitors of AXL/MER RTK and CSF1R” (QURIENT CO., LTD., priority 2018, dated 2024)
Where two headings read alike, the source gives them in different places.

Key:
CSF1R = CSF1R (Homo sapiens, UniProt P07333); assay: KINOMEscan competition binding assay for CSF1R; set-up: DNA tag for qPCR (not a peptide); host or cells: E. coli/T7 phage or HEK-293
Method in brief: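 Values are either % inhibition at 0.1 uM, relative to DMSO (100% Ctrl) and a control compound (0% Ctrl), or Kd from an 11-point 3-fold series fitted with Hill slope −1. DNA-tagged kinase binds immobilized ligand beads with compound for 1 h at room temperature, and eluted kinase is measured by qPCR.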

CSF1R (M-NFS-60 cells) = assay: Cell Titer-Glo viability assay using M-NFS-60 cells; assay type: cell-based; details: Mus musculus, read-out: Cellular CSF1R activity by M-NFS-60 viability assay (IC50 activity range)
Method in brief: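 M-NFS-60 cells grown with 62 ng/ml recombinant human M-CSF, seeded at 2×10^5 cells/well and incubated at 37 °C/5% CO2. Compounds given as 3-fold serial dilutions (10 doses); viability read by CellTiter-Glo luminescence, sigmoidal dose-response fit.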

[1] = read-out: CSF1R kinase binding activity, Percent (%) inhibition
[2] = read-out: CSF1R kinase binding activity, Range

CSF1R, sequence (P07333 20-972): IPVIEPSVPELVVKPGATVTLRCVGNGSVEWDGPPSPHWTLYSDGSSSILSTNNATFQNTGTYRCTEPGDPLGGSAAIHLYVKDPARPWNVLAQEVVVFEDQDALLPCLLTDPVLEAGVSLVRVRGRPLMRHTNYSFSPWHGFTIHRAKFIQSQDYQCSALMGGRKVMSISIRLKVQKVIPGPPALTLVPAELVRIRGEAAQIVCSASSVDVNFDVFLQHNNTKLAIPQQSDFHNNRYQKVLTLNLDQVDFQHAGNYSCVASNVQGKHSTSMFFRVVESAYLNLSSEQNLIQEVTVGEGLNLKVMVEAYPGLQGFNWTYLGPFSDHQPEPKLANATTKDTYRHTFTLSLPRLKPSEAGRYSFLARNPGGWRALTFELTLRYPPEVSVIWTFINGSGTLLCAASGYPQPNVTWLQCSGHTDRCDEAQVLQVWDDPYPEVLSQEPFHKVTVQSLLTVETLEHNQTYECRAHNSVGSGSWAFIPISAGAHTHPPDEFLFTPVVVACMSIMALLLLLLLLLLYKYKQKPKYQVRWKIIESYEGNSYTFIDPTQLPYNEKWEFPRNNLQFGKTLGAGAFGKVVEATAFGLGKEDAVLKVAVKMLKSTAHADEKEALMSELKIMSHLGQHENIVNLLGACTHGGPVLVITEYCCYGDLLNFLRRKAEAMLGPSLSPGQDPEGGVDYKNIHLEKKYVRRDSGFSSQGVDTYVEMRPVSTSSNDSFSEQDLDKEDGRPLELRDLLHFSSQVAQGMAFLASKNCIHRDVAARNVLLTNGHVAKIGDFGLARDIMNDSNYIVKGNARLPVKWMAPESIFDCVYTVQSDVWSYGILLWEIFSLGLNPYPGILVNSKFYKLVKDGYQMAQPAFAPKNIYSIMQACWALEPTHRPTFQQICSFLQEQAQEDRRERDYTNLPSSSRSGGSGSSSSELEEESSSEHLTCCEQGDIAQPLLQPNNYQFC

inhibition at 0.1 µM (CSF1R; [1]) [%]	inhibition at 0.1 µM (CSF1R; [2]) [%]	Kd (CSF1R; read-out: CSF1R kinase binding activity (Kd)) [nM]	Compound	IC50 (CSF1R (M-NFS-60 cells)) [nM]
97	≥ 80	< 100	COc1cc2nccc(Oc3ccc(NC(=O)c4nn(C5CC5)cc4OCC(F)(F)F)nc3)c2cc1OC [Compound 5]	< 1000
76	50 to 80	–	COc1cc2nccc(Oc3ccc(NC(=O)c4nn(C5CCOC5)cc4OCC(F)(F)F)c(F)c3)c2cc1OC (stereo not shown) [Compound 77]	1000 to 10000
11	< 50	–	COc1cc2nccc(Oc3ccc(NC(=O)c4nn(C5CCNC5)cc4OCC(F)(F)F)cc3F)c2cc1OC (stereo not shown) [Compound 78]	1000 to 10000
12	< 50	–	COc1cc2nccc(Oc3ccc(NC(=O)c4nn(CCN)cc4OCC(F)(F)F)cc3F)c2cc1OC [Compound 79]	1000 to 10000
64	50 to 80	–	COc1cc2nccc(Oc3ccc(NC(=O)c4nn(CC(C)O)cc4OCC(F)(F)F)cc3F)c2cc1OC (stereo not shown) [Compound 80]	1000 to 10000
46	< 50	–	COc1cc2nccc(Oc3ccc(NC(=O)c4nn(C5CCNC5)cc4OCC(F)(F)F)cc3C)c2cc1OC (stereo not shown) [Compound 81]	1000 to 10000
35	< 50	–	COc1cc2nccc(Oc3ccc(NC(=O)c4nn(CCN)cc4OCC(F)(F)F)cc3C)c2cc1OC [Compound 82]	1000 to 10000
97	≥ 80	–	COc1cc2nccc(Oc3ccc(NC(=O)c4nn(CC(C)O)cc4OCC(F)(F)F)cc3C)c2cc1OC (stereo not shown) [Compound 83]	1000 to 10000
97	≥ 80	–	COCCn1cc(OCC(F)(F)F)c(C(=O)Nc2ccc(Oc3ccnc4cc(OC)c(OC)cc34)c(C)c2)n1 [Compound 84]	1000 to 10000
78	50 to 80	–	COc1cc2nccc(Oc3ccc(NC(=O)c4nn(C5CCOC5)cc4OCC(F)(F)F)cc3C)c2cc1OC (stereo not shown) [Compound 85]	1000 to 10000
11	< 50	–	COc1cc2nccc(Oc3ccc(NC(=O)c4nn(C5CCNC5)cc4OCC(F)(F)F)cc3)c2cc1OC (stereo not shown) [Compound 86]	1000 to 10000
71	50 to 80	–	COc1cc2nccc(Oc3ccc(NC(=O)c4nn(CC(C)C)cc4OCC(F)(F)F)cc3)c2cc1OC [Compound 87]	1000 to 10000
21	< 50	–	COc1cc2nccc(Oc3ccc(NC(=O)c4nn(CCN)cc4OCC(F)(F)F)cc3)c2cc1OC [Compound 88]	1000 to 10000
56	50 to 80	–	COc1cc2nccc(Oc3ccc(NC(=O)c4nn(CC(C)O)cc4OCC(F)(F)F)cc3)c2cc1OC (stereo not shown) [Compound 89]	1000 to 10000
95	≥ 80	–	COc1cc2nccc(Oc3ccc(NC(=O)c4nn(C5CCOCC5)cc4OCC(F)(F)F)nc3)c2cc1OC [Compound 90]	< 1000
99	≥ 80	–	COc1cc2nccc(Oc3ccc(NC(=O)c4nn(C5CCN(C)C5)cc4OCC(F)(F)F)nc3)c2cc1OC (stereo not shown) [Compound 91]	< 1000
89	≥ 80	–	COc1cc2nccc(Oc3ccc(NC(=O)c4nn(CCC5CCCC5)cc4OCC(F)(F)F)nc3)c2cc1OC [Compound 93]	< 1000
65	50 to 80	–	COc1cc2nccc(Oc3ccc(NC(=O)c4nn(C5CCN(C)C5)cc4OCC(F)(F)F)c(F)c3)c2cc1OC (stereo not shown) [Compound 94]	1000 to 10000
61	50 to 80	–	COc1cc2nccc(Oc3ccc(NC(=O)c4nn(CC5COC5)cc4OCC(F)(F)F)c(F)c3)c2cc1OC [Compound 95]	1000 to 10000
